Assay results as given in ChEMBL document CHEMBL1201862, “PubChem BioAssay data set” (2004).
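Briefly, cells in 96-well plates were exposed to five compound concentrations for 48 h, and endpoints were estimated by linear interpolation. Abbreviation: GI50, concentration required for 50% inhibition of growth.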 Active and inactive are the calls of the source. Cut-off read from the data, not from the text of the source: active = GI50 up to about 1.1 µM and inactive = higher.

Key:
Test in all cases: NCI-60 cell line screen, 48 h
HOP-62 = system: HOP-62
RPMI-8226 = system: RPMI-8226
SNB-19 = system: SNB-19
MCF7 = system: MCF7
NCI-H226 = system: NCI-H226
K562 = system: K562
RXF 393 = system: RXF 393
KM12 = system: KM12
OVCAR-3 = system: OVCAR-3
OVCAR-5 = system: OVCAR-5
TK-10 = system: TK-10
SF-295 = system: SF-295
EKVX = system: EKVX
SF-539 = system: SF-539
786-0 = system: 786-0
DU-145 = system: DU-145
COLO 205 = system: COLO 205
SK-MEL-2 = system: SK-MEL-2
T47D = system: T47D
SW-620 = system: SW-620
MDA-N = system: MDA-N
A549 = system: A549
U-251 = system: U-251
HL-60 = system: HL-60
NCI-H460 = system: NCI-H460
IGROV-1 = system: IGROV-1
MOLT-4 = system: MOLT-4
SF-268 = system: SF-268
PC-3 = system: PC-3
NCI/ADR-RES = system: NCI/ADR-RES
CAKI-1 = system: CAKI-1
CCRF-CEM = system: CCRF-CEM
NCI-H23 = system: NCI-H23
HCT-116 = system: HCT-116
HCT-15 = system: HCT-15
M14 = system: M14
A498 = system: A498
NCI-H522 = system: NCI-H522
LOX IMVI = system: LOX IMVI
UO-31 = system: UO-31
BT-549 = system: BT-549
Hs-578T = system: Hs-578T
OVCAR-4 = system: OVCAR-4
UACC-257 = system: UACC-257
MDA-MB-231 = system: MDA-MB-231
HOP-92 = system: HOP-92
SK-MEL-5 = system: SK-MEL-5
SK-MEL-28 = system: SK-MEL-28
Malme-3M = system: Malme-3M
MDA-MB-435 = system: MDA-MB-435
ACHN = system: ACHN
OVCAR-8 = system: OVCAR-8
HT-29 = system: HT-29
SN12C = system: SN12C
SNB-75 = system: SNB-75
HCC 2998 = system: HCC 2998
UACC-62 = system: UACC-62
SK-OV-3 = system: SK-OV-3

Compound: CCCNC(=O)c1cc(OC)c(OC)cc1NC(=O)C12CC3CC(CC(C3)C1)C2
- GI50 (HOP-62): 19.7 µM (inactive)
- GI50 (RPMI-8226): 32.4 µM (inactive)
- GI50 (SNB-19): 16.4 µM (inactive)
- GI50 (MCF7): 22.2 µM (inactive)
- GI50 (NCI-H226): 25.2 µM (inactive)
- GI50 (K562): 31.9 µM (inactive)
- GI50 (RXF 393): 6.81 µM (inactive)
- GI50 (KM12): 17.6 µM (inactive)
- GI50 (OVCAR-3): 19 µM (inactive)
- GI50 (OVCAR-5): 20.2 µM (inactive)
- GI50 (TK-10): 16.6 µM (inactive)
- GI50 (SF-295): 18.7 µM (inactive)
- GI50 (EKVX): 18.2 µM (inactive)
- GI50 (SF-539): 22.2 µM (inactive)
- GI50 (786-0): 17 µM (inactive)
- GI50 (DU-145): 21.2 µM (inactive)
- GI50 (COLO 205): 24.3 µM (inactive)
- GI50 (SK-MEL-2): 15.5 µM (inactive)
- GI50 (T47D): 17.5 µM (inactive)
- GI50 (SW-620): > 100 µM (inactive)
- GI50 (MDA-N): 16.7 µM (inactive)
- GI50 (A549): 17.1 µM (inactive)
- GI50 (U-251): 17 µM (inactive)
- GI50 (HL-60): 32.7 µM (inactive)
- GI50 (NCI-H460): 20.6 µM (inactive)
- GI50 (IGROV-1): 22.9 µM (inactive)
- GI50 (MOLT-4): 29.9 µM (inactive)
- GI50 (SF-268): 17.6 µM (inactive)
- GI50 (PC-3): 17.3 µM (inactive)
- GI50 (NCI/ADR-RES): 19 µM (inactive)
- GI50 (CAKI-1): 19.8 µM (inactive)
- GI50 (CCRF-CEM): 28.2 µM (inactive)
- GI50 (NCI-H23): 16.8 µM (inactive)
- GI50 (HCT-116): 16.8 µM (inactive)
- GI50 (HCT-15): 17 µM
- GI50 (M14): 15.2 µM (inactive)
- GI50 (A498): 15.1 µM (inactive)
- GI50 (NCI-H522): 12.3 µM (inactive)
- GI50 (LOX IMVI): 19.5 µM (inactive)
- GI50 (UO-31): 16.6 µM (inactive)
- GI50 (BT-549): 16.7 µM (inactive)
- GI50 (Hs-578T): 19.8 µM (inactive)
- GI50 (OVCAR-4): 17.6 µM (inactive)
- GI50 (UACC-257): 17.6 µM (inactive)
- GI50 (MDA-MB-231): 16.9 µM (inactive)
- GI50 (HOP-92): 18.3 µM (inactive)
- GI50 (SK-MEL-5): 40 µM (inactive)
- GI50 (SK-MEL-28): 16.1 µM (inactive)
- GI50 (Malme-3M): 17.8 µM (inactive)
- GI50 (MDA-MB-435): 17.9 µM (inactive)
- GI50 (ACHN): 14.5 µM (inactive)
- GI50 (OVCAR-8): 23.7 µM (inactive)
- GI50 (HT-29): 18.2 µM (inactive)
- GI50 (SN12C): 16.1 µM (inactive)

Compound: CC(=O)OCC1OC(On2ccccc2=S)C(OC(C)=O)C(OC(C)=O)C1OC(C)=O (stereo unspecified)
- GI50 (SNB-75): > 100 µM (inactive)
- GI50 (HOP-62): > 100 µM (inactive)
- GI50 (HCC 2998): > 100 µM (inactive)
- GI50 (SNB-19): > 100 µM (inactive)
- GI50 (MCF7): > 100 µM (inactive)
- GI50 (K562): > 100 µM (inactive)
- GI50 (RXF 393): > 100 µM (inactive)
- GI50 (KM12): > 100 µM (inactive)
- GI50 (OVCAR-3): > 100 µM (inactive)
- GI50 (OVCAR-5): > 100 µM (inactive)
- GI50 (TK-10): > 100 µM (inactive)
- GI50 (SF-295): > 100 µM (inactive)
- GI50 (EKVX): > 100 µM (inactive)
- GI50 (SF-539): > 100 µM (inactive)
- GI50 (786-0): > 100 µM (inactive)
- GI50 (DU-145): > 100 µM (inactive)
- GI50 (COLO 205): 81.5 µM (inactive)
- GI50 (SK-MEL-2): > 100 µM (inactive)
- GI50 (T47D): 87.1 µM (inactive)
- GI50 (SW-620): 36.6 µM (inactive)
- GI50 (MDA-N): > 100 µM (inactive)
- GI50 (A549): > 100 µM (inactive)
- GI50 (U-251): > 100 µM (inactive)
- GI50 (HL-60): 1.55 µM (inactive)
- GI50 (NCI-H460): > 100 µM (inactive)
- GI50 (IGROV-1): > 100 µM (inactive)
- GI50 (MOLT-4): 33.9 µM (inactive)
- GI50 (SF-268): > 100 µM (inactive)
- GI50 (PC-3): 69.2 µM (inactive)
- GI50 (NCI/ADR-RES): > 100 µM (inactive)
- GI50 (CAKI-1): > 100 µM (inactive)
- GI50 (CCRF-CEM): 0.785 µM (active)
- GI50 (NCI-H23): > 100 µM (inactive)
- GI50 (HCT-116): > 100 µM (inactive)
- GI50 (HCT-15): > 100 µM
- GI50 (M14): > 100 µM (inactive)
- GI50 (A498): > 100 µM (inactive)
- GI50 (NCI-H522): 49.7 µM (inactive)
- GI50 (UACC-62): > 100 µM (inactive)
- GI50 (LOX IMVI): > 100 µM (inactive)
- GI50 (UO-31): > 100 µM (inactive)
- GI50 (BT-549): > 100 µM (inactive)
- GI50 (Hs-578T): > 100 µM (inactive)
- GI50 (OVCAR-4): > 100 µM (inactive)
- GI50 (UACC-257): > 100 µM (inactive)
- GI50 (MDA-MB-231): > 100 µM (inactive)
- GI50 (HOP-92): > 100 µM (inactive)
- GI50 (SK-MEL-5): > 100 µM (inactive)
- GI50 (SK-MEL-28): > 100 µM (inactive)
- GI50 (Malme-3M): > 100 µM (inactive)
- GI50 (SK-OV-3): > 100 µM (inactive)
- GI50 (MDA-MB-435): > 100 µM (inactive)
- GI50 (ACHN): > 100 µM (inactive)
- GI50 (OVCAR-8): > 100 µM (inactive)
- GI50 (HT-29): 78.9 µM (inactive)
- GI50 (SN12C): > 100 µM (inactive)

Compound: CC1=C(C(=O)N(C(C)C)C(C)C)CC(C(=O)N(C(C)C)C(C)C)=C(C)N1
- GI50 (SNB-75): 16.4 µM (inactive)
- GI50 (HOP-62): > 100 µM (inactive)
- GI50 (RPMI-8226): > 100 µM (inactive)
- GI50 (HCC 2998): > 100 µM (inactive)
- GI50 (SNB-19): > 100 µM (inactive)
- GI50 (MCF7): > 100 µM (inactive)
- GI50 (NCI-H226): > 100 µM (inactive)
- GI50 (K562): > 100 µM (inactive)
- GI50 (RXF 393): > 100 µM (inactive)
- GI50 (KM12): > 100 µM (inactive)
- GI50 (OVCAR-3): > 100 µM (inactive)
- GI50 (OVCAR-5): > 100 µM (inactive)
- GI50 (TK-10): > 100 µM (inactive)
- GI50 (SF-295): > 100 µM (inactive)
- GI50 (EKVX): > 100 µM (inactive)
- GI50 (SF-539): > 100 µM (inactive)
- GI50 (786-0): > 100 µM (inactive)
- GI50 (DU-145): > 100 µM (inactive)
- GI50 (COLO 205): > 100 µM (inactive)
- GI50 (SK-MEL-2): > 100 µM (inactive)
- GI50 (T47D): 49.3 µM (inactive)
- GI50 (SW-620): > 100 µM (inactive)
- GI50 (MDA-N): > 100 µM (inactive)
- GI50 (A549): > 100 µM (inactive)
- GI50 (U-251): > 100 µM (inactive)
- GI50 (HL-60): > 100 µM (inactive)
- GI50 (NCI-H460): > 100 µM (inactive)
- GI50 (IGROV-1): > 100 µM (inactive)
- GI50 (MOLT-4): > 100 µM (inactive)
- GI50 (SF-268): > 100 µM (inactive)
- GI50 (PC-3): 96.6 µM (inactive)
- GI50 (NCI/ADR-RES): > 100 µM (inactive)
- GI50 (CAKI-1): > 100 µM (inactive)
- GI50 (CCRF-CEM): > 100 µM (inactive)
- GI50 (NCI-H23): > 100 µM (inactive)
- GI50 (HCT-116): > 100 µM (inactive)
- GI50 (HCT-15): > 100 µM
- GI50 (M14): > 100 µM (inactive)
- GI50 (A498): 35.8 µM (inactive)
- GI50 (NCI-H522): > 100 µM (inactive)
- GI50 (UACC-62): > 100 µM (inactive)
- GI50 (LOX IMVI): > 100 µM (inactive)
- GI50 (UO-31): > 100 µM (inactive)
- GI50 (BT-549): > 100 µM (inactive)
- GI50 (Hs-578T): > 100 µM (inactive)
- GI50 (OVCAR-4): > 100 µM (inactive)
- GI50 (UACC-257): > 100 µM (inactive)
- GI50 (MDA-MB-231): 54.1 µM (inactive)
- GI50 (HOP-92): > 100 µM (inactive)
- GI50 (SK-MEL-5): > 100 µM (inactive)
- GI50 (SK-OV-3): > 100 µM (inactive)
- GI50 (MDA-MB-435): 79.8 µM (inactive)
- GI50 (ACHN): > 100 µM (inactive)
- GI50 (OVCAR-8): > 100 µM (inactive)
- GI50 (HT-29): > 100 µM (inactive)
- GI50 (SN12C): > 100 µM (inactive)
